Assay results taken from patent US11634443B2, “Treprostinil prodrugs” (United Therapeutics Corporation, priority 2019, dated 2023).
Where two headings read alike, the source gives them in different places. Each block holds one compound with its values, some of them ahead of it.

Columns and labels:
[1] = Measured solubility at pH 6.5; type: physicochemical
[2] = biological target: T1, prostaglandin I2 (PGI2) receptor (IP) (Homo sapiens, UniProt P43119); experiment: IP receptor cAMP assay (agonist mode); type: cell-based; conditions: for Activity, IP Relative to Tre: relative to treprostinil EC50 values, image character = too high to realistically calculate
T1 construct: expressed in transfected cells; host or cells: CHO-K1
T1 sequence (P43119 whole entry): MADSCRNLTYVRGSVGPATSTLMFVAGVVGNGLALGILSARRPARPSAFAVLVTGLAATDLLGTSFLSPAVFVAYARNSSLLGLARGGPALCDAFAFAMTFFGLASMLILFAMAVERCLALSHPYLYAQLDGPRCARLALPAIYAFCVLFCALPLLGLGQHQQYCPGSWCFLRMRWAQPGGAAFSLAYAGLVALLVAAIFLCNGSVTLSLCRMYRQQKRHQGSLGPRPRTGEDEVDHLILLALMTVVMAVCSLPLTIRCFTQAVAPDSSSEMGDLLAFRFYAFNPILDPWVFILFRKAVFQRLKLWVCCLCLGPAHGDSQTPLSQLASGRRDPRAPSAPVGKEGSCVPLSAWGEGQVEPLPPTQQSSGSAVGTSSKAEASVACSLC

[3] = Stability and formation of treprostinil in rat cryopreserved hepatocytes
Protocol: (§1) Mixed-gender human cryopreserved hepatocytes, male Sprague-Dawley rat cryopreserved hepatocytes, and male Beagle dog cryopreserved hepatocytes were purchased from XenoTech. The hepatocytes were thawed and prepared according to the vendor's instructions, pooled into Krebs Henseleit buffer (KHB, pH 7.4), and kept on ice prior to the experiments. […] The final DMSO content in the incubation mixture was ≤0.1%. […] Aliquots of the test article were withdrawn (n=1) at 0, 15, 30, 60, and 120 minutes. […] Aliquots of 7-HC were withdrawn (n=1) at 0 and 15 minutes. The reaction was immediately terminated by adding two volumes of ice-cold acetonitrile (ACN) to the test article samples and three volumes of ACN containing internal standard to the positive control samples.

[4] = Plasma stability and formation of treprostinil, dog plasma; type: in vitro ADME; conditions: for Formation of Treprostinil, Concentration: prodrug dosed at 1 μM
Protocol: (§2) Studies were carried out in mixed-gender human plasma male Sprague-Dawley rat plasma, and male Beagle dog plasma. All plasma was obtained from Bioreclamation and collected on K2EDTA. Plasma was adjusted to pH 7.4 prior to initiating the experiments. DMSO stocks were first prepared for the test articles. […] The vials were kept in a benchtop Thermomixer® for the duration of the experiment. […] Samples were stored at 4° C. until the end of the experiment. After the final time point was sampled, the plate was mixed and then centrifuged at 3000 rpm for 10 minutes.

[5] = Stability and formation of treprostinil in human cryopreserved hepatocytes
Protocol: as §1

[6] = Stability and formation of treprostinil in dog cryopreserved hepatocytes
Protocol: as §1

[7] = microsomes
[8] = Stability and formation of treprostinil in simulated intestinal fluid; type: in vitro ADME; conditions: for Formation of Treprostinil, Concentration: SIF, prodrug dosed at 1 μM
[9] = biological target: T2, prostaglandin D2 (PGD2) receptor 1 (DP1) (Homo sapiens, UniProt Q13258); experiment: DP1 receptor cAMP assay (agonist mode); type: cell-based; conditions: for Activity at the DP1 receptor compared to treprostinil: cAMP, cells overexpressing human DP1; for Activity, DP1 Relative to Tre: relative to treprostinil EC50 values, * partial agonists or ambiguous dose-response curves
T2 construct: expressed in transfected cells; host or cells: HEK293T
T2 sequence (Q13258 1-359): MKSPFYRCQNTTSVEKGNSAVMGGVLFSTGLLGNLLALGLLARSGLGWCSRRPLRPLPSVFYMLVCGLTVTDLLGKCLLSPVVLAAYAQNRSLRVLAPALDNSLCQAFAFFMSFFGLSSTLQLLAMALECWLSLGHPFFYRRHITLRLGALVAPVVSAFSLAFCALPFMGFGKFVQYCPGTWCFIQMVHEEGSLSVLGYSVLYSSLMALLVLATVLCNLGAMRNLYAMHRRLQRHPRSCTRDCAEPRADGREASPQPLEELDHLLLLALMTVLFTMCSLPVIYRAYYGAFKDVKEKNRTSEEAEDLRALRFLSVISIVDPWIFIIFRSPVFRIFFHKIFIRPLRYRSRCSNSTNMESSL

[10] = Hydrolysis of treprostinil prodrugs to treprostinil at pH 6, 7 and 8 and 40 C; type: physicochemical
Source text: Tables 26, 27 and 28 present data for hydrolysis of selected treprostinil prodrugs at pH 6, 7 and 8, respectively, and 40 C.

[11] = microsomes; remark: listed apart in the source
[12] = Plasma stability and formation of treprostinil, human plasma; type: in vitro ADME; conditions: for Formation of Treprostinil, Concentration: prodrug dosed at 1 μM
Protocol: as §2

[13] = Plasma stability and formation of treprostinil, rat plasma; type: in vitro ADME; conditions: for Formation of Treprostinil, Concentration: prodrug dosed at 1 μM
Protocol: as §2

[14] = biological target: T3, prostaglandin E2 (PGE2) receptor 2 (EP2) (Homo sapiens, UniProt P43116); experiment: EP2 receptor cAMP assay (agonist mode); type: cell-based; conditions: cAMP, cells overexpressing human EP2
T3 construct: expressed in transfected cells; host or cells: HEK293T
T3 sequence (P43116 whole entry): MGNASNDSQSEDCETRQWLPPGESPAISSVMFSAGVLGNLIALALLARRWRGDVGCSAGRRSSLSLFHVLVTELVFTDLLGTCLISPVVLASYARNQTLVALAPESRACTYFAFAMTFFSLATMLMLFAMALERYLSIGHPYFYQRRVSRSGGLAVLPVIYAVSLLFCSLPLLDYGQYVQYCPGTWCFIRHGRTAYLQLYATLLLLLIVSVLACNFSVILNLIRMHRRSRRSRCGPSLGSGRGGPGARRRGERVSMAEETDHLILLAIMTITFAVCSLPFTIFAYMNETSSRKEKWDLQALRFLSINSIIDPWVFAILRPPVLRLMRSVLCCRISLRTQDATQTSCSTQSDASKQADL

[15] = Stability and formation of treprostinil in human subcutaneous skin homogenate; conditions: pooled human skin homogenate, 1 μM
[16] = cAMP, cells overexpressing human IP

Compound: treprostinil diacetate [Prodrug LXXII]
Activity at the IP receptor compared to treprostinil [2, 16]: inactive | Treprostinil Concentration, 0 min [3]: 0 µM | Treprostinil Concentration, 15 min [3]: 0.24 µM | Treprostinil Concentration, 30 min [3]: 0.301 µM | Treprostinil Concentration, 60 min [3]: 0.298 µM | Treprostinil Concentration, 120 min [3]: 0.274 µM | Formation of Treprostinil, Concentration ([4]; 0 min): 0 µM | Half-Life ([4]; 1 μM, 37° C.): >2 h | Percent Remaining ([4]; 15 min, 1 μM, 37° C.): 96.7% | Formation of Treprostinil, Concentration ([4]; 15 min): 0 µM | Formation of Treprostinil, Concentration ([4]; 30 min): 0 µM | Percent Remaining ([4]; 120 min, 1 μM, 37° C.): 82.9% | Formation of Treprostinil, Concentration ([4]; 120 min): 0 µM | Formation of Treprostinil, Concentration [4]: 0 µM | Treprostinil Concentration, 0 min [5]: 0.00458 µM | Treprostinil Concentration, 15 min [5]: 0.562 µM | Treprostinil Concentration, 30 min [5]: 0.491 µM | Treprostinil Concentration, 60 min [5]: 0.433 µM | Treprostinil Concentration, 120 min [5]: 0.364 µM | Treprostinil Concentration, 0 min [6]: 0.0636 µM | Treprostinil Concentration, 15 min [6]: 0.671 µM | Treprostinil Concentration, 30 min [6]: 0.541 µM | Treprostinil Concentration, 60 min [6]: 0.465 µM | Treprostinil Concentration, 120 min [6]: 0.401 µM | CLint ([6]; hepatocytes): >0.0308 mL/min/mg protein | Half-Life ([6]; hepatocytes): <0.25 h | Half-Life [7]: <0.167 h | Half-Life ([8]; SIF pH 6.8, 1 μM, 37° C.): >2 h | Formation of Treprostinil, Concentration ([8]; 0 min): 0 µM | Formation of Treprostinil, Concentration ([8]; 15 min): 0 µM | Formation of Treprostinil, Concentration ([8]; 30 min): 0 µM | Formation of Treprostinil, Concentration ([8]; 60 min): 0 µM | Formation of Treprostinil, Concentration ([8]; 120 min): 0.0126 µM | Activity at the DP1 receptor compared to treprostinil [9]: several hundred-fold less active | Hydrolysis of prodrug to treprostinil, % Area, t = 1 week ([10]; pH 6, 40 C): 0.00 % Area | Hydrolysis of prodrug to treprostinil, % Area, t = 2 weeks ([10]; pH 6, 40 C): 0.00 % Area | Hydrolysis of prodrug to treprostinil, % Area, t = 3 weeks ([10]; pH 6, 40 C): 0.00 % Area | Hydrolysis of prodrug to treprostinil, % Area, t = 1 week ([10]; pH 7, 40 C): 0.00 % Area | Hydrolysis of prodrug to treprostinil, % Area, t = 2 weeks ([10]; pH 7, 40 C): 0.00 % Area | Hydrolysis of prodrug to treprostinil, % Area, t = 3 weeks ([10]; pH 7, 40 C): 0.00 % Area | Hydrolysis of prodrug to treprostinil, % Area, t = 1 week ([10]; pH 8, 40 C): 0.00 % Area | Hydrolysis of prodrug to treprostinil, % Area, t = 2 weeks ([10]; pH 8, 40 C): 0.00 % Area | Hydrolysis of prodrug to treprostinil, % Area, t = 3 weeks ([10]; pH 8, 40 C): 0.00 % Area | Half-Life [11]: <0.167 h | Formation of Treprostinil, Concentration ([12]; 0 min): 0 µM | Half-Life ([12]; 1 μM, 37° C.): >2 h | Formation of Treprostinil, Concentration ([12]; 15 min): 0 µM | Formation of Treprostinil, Concentration ([12]; 30 min): 0 µM | Percent Remaining ([12]; 120 min, 1 μM, 37° C.): 86.5% | Formation of Treprostinil, Concentration ([12]; 120 min): 0 µM | Formation of Treprostinil, Concentration [12]: 0 µM | Formation of Treprostinil, Concentration ([13]; 0 min): 0 µM | Half-Life ([13]; 1 μM, 37° C.): >2 h | Formation of Treprostinil, Concentration ([13]; 60 mm): 0.00595 µM | Formation of Treprostinil, Concentration ([13]; 15 min): 0 µM | Formation of Treprostinil, Concentration ([13]; 30 min): 0 µM | Percent Remaining ([13]; 60 min, 1 μM, 37° C.): 83.6% | Percent Remaining ([13]; 120 min, 1 μM, 37° C.): 79.7% | Formation of Treprostinil, Concentration ([13]; 120 min): 0.0151 µM | Activity at the EP2 receptor compared to treprostinil [14]: non-traditional dose response curve

Compound: CCCCC[C@@H](CC[C@@H]1[C@H]2Cc3cccc(OCC(=O)O)c3C[C@H]2C[C@H]1O)OC(=O)OC(C)C [XVII]
Measured Sol [1]: 10 mg/mL

Compound: treprostinil diphosphate [Prodrug LXXIII]
Activity, IP Relative to Tre ([2]; Table 24, * partial agonists or ambiguous dose-response curves): 208x | Activity, IP Relative to Tre ([2]; Table 25): 208x | Fold less active than treprostinil at the IP receptor [2, 16]: approximately 200 fold | Treprostinil Concentration, 15 min [3]: 0.0097 µM | Formation of Treprostinil, Concentration ([4]; 0 min): 0 µM | Formation of Treprostinil, Concentration ([4]; 15 min): 0 µM | Formation of Treprostinil, Concentration ([4]; 30 min): 0 µM | Formation of Treprostinil, Concentration ([4]; 120 min): 0 µM | Formation of Treprostinil, Concentration [4]: 0 µM | Treprostinil Concentration, 15 min [5]: 0.0163 µM | Treprostinil Concentration, 15 min [6]: 0.0506 µM | Activity, DP1 Relative to Tre ([9]; Table 24, image character = too high to realistically calculate): 217x | Activity, DP1 Relative to Tre ([9]; Table 25): 217x | Activity at the DP1 receptor compared to treprostinil [9]: several hundred-fold less active | Hydrolysis of prodrug to treprostinil, % Area, t = 1 week ([10]; pH 6, 40 C): 0.00 % Area | Hydrolysis of prodrug to treprostinil, % Area, t = 2 weeks ([10]; pH 6, 40 C): 0.00 % Area | Hydrolysis of prodrug to treprostinil, % Area, t = 3 weeks ([10]; pH 6, 40 C): 0.00 % Area | Hydrolysis of prodrug to treprostinil, % Area, t = 1 week ([10]; pH 7, 40 C): 0.00 % Area | Hydrolysis of prodrug to treprostinil, % Area, t = 2 weeks ([10]; pH 7, 40 C): 0.00 % Area | Hydrolysis of prodrug to treprostinil, % Area, t = 3 weeks ([10]; pH 7, 40 C): 0.00 % Area | Hydrolysis of prodrug to treprostinil, % Area, t = 1 week ([10]; pH 8, 40 C): 0.00 % Area | Hydrolysis of prodrug to treprostinil, % Area, t = 2 weeks ([10]; pH 8, 40 C): 0.00 % Area | Hydrolysis of prodrug to treprostinil, % Area, t = 3 weeks ([10]; pH 8, 40 C): 0.00 % Area | Percent Remaining (Avg, n = 3) ([15]; 0 min): 100% | Percent Remaining (Avg, n = 3) ([15]; 30 min): 86.2% | Percent Remaining (Avg, n = 3) ([15]; 60 min): 71.2% | Percent Remaining (Avg, n = 3) ([15]; 120 min): 64.0% | Formation of Treprostinil, Concentration ([12]; 0 min): 0 µM | Formation of Treprostinil, Concentration ([12]; 15 min): 0 µM | Formation of Treprostinil, Concentration ([12]; 30 min): 0 µM | Formation of Treprostinil, Concentration ([12]; 120 min): 0 µM | Formation of Treprostinil, Concentration [12]: 0 µM | Formation of Treprostinil, Concentration ([13]; 0 min): 0 µM | Formation of Treprostinil, Concentration ([13]; 60 mm): 0 µM | Formation of Treprostinil, Concentration ([13]; 15 min): 0 µM | Formation of Treprostinil, Concentration ([13]; 30 min): 0 µM | Formation of Treprostinil, Concentration ([13]; 120 min): 0 µM | Activity at the EP2 receptor compared to treprostinil [14]: inactive

Next, values leading:

Measured Sol [1]: > 10 mg/mL
Compound: CCCCC[C@@H](CC[C@@H]1[C@H]2Cc3cccc(OCC(=O)O)c3C[C@H]2C[C@H]1O)OP(=O)(O)O [VI]

Measured Sol [1]: 10 mg/mL
Compound: CCCCC[C@@H](CC[C@@H]1[C@H]2Cc3cccc(OCC(=O)O)c3C[C@H]2C[C@H]1O)OC(=O)OCC [XVI]
